Reference: patent US20060069132A1, “Azolecarboxamide herbicides” (priority 2004, published 2006)

Legend:
[1] = tested on: pigweed; experiment: Test B pre-/postemergence herbicide test; format: in vivo, Amaranthus retroflexus; conditions: 125 g ai/ha; for Plant response rating (0 to 100 scale), Pigweed: 0 is no effect, 100 is complete control, preemergence
Method in brief: (§1)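 Response was scored visually 13 to 15 days after treatment against untreated greenhouse controls, 0 meaning no effect and 100 complete control. Formulations (solvent mixture plus surfactant) went onto soil after planting, onto foliage of 1- to 4-leaf plants, and onto 2-leaf plants in a flooded paddy set including rice and barnyardgrass.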

[2] = tested on: rice; experiment: Test B flooded paddy test; format: in vivo, Oryza sativa; conditions: 1000 g ai/ha, scale 0 to 100 (0 no effect, 100 complete control)
Method in brief: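 Postemergence plants were sprayed with formulated test chemicals at 2 to 18 cm height (1- to 4-leaf stage); paddy species were grown to the 2-leaf stage. After 13 to 15 days in a greenhouse, injury was rated visually against untreated controls on a 0–100 scale (0 = no effect, 100 = complete control).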

[3] = tested on: ducksalad; experiment: Test B flooded paddy test; format: in vivo, Heteranthera limosa; conditions: 1000 g ai/ha, scale 0 to 100 (0 no effect, 100 complete control)
Method in brief: (§2)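 Read-out: visual comparison with controls, scored 0 to 100, where 100 means complete control and 0 no effect. Formulated chemicals were applied postemergence to plants 2–18 cm tall (1- to 4-leaf), or to flooded-paddy plants at the 2-leaf stage, then held 13 to 15 days under glass.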

[4] = tested on: velvetleaf; experiment: Test B pre-/postemergence herbicide test; format: in vivo, Abutilon theophrasti; conditions: 125 g ai/ha; for Plant response rating (0 to 100 scale), Velvetleaf: 0 is no effect, 100 is complete control, preemergence
Method in brief: as §1

[5] = tested on: blackgrass; experiment: Test B postemergence herbicide test; format: in vivo, Alopecurus myosuroides
Method in brief: as §2

[6] = tested on: wheat; experiment: Test B postemergence herbicide test; format: in vivo, Triticum aestivum; design: key to Wheat plant response rating: 0 = no effect, 100 = complete control
Method in brief: (§3)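 Greenhouse test; postemergence application to plants at 1–4 leaves (2–18 cm); paddy species at 2 leaves; evaluated visually vs controls at 13–15 days; scale 0–100 (100 = complete control).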

[7] = tested on: small flower umbrella sedge; experiment: Test B flooded paddy test; format: in vivo, Cyperus difformis; conditions: 1000 g ai/ha, scale 0 to 100 (0 no effect, 100 complete control)
Method in brief: as §2

[8] = tested on: corn; experiment: Test B pre-/postemergence herbicide test; format: in vivo, Zea mays; conditions: for Plant response rating (0 to 100 scale), Corn: 0 is no effect, preemergence
Method in brief: as §1

[9] = tested on: barnyardgrass; experiment: Test B flooded paddy test; format: in vivo, Echinochloa crus-galli; conditions: 1000 g ai/ha, scale 0 to 100 (0 no effect, 100 complete control)
Method in brief: as §2

[10] = tested on: Surinam grass; experiment: Test B pre-/postemergence herbicide test; format: in vivo, Urochloa decumbens; conditions: 125 g ai/ha; for Plant response rating (0 to 100 scale), Surinam Grass: 0 is no effect, 100 is complete control, preemergence
Method in brief: as §1

[11] = tested on: large crabgrass; experiment: Test B pre-/postemergence herbicide test; format: in vivo, Digitaria sanguinalis; conditions: for Plant response rating (0 to 100 scale), Crabgrass, Large: 0 is no effect, preemergence
Method in brief: as §1

[12] = tested on: giant foxtail; experiment: Test B pre-/postemergence herbicide test; format: in vivo, Setaria faberi; conditions: for Plant response rating (0 to 100 scale), Foxtail, Giant: 0 is no effect, preemergence
Method in brief: as §1

[13] = tested on: barnyardgrass; experiment: Test B pre-/postemergence herbicide test; format: in vivo, Echinochloa crus-galli; conditions: for Plant response rating (0 to 100 scale), Barnyardgrass: 0 is no effect, preemergence
Method in brief: (§4)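 Pre: seeds sown, then sprayed. Post: 1–4-leaf plants (2–18 cm) sprayed at the same time. Paddy: flooded, treated at 2-leaf stage. Formulation: non-phytotoxic solvent with surfactant. Greenhouse 13–15 days; visual 0–100 score relative to controls.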

[14] = tested on: cocklebur; experiment: Test B pre-/postemergence herbicide test; format: in vivo, Xanthium strumarium; conditions: for Plant response rating (0 to 100 scale), Cocklebur: 0 is no effect, preemergence
Method in brief: as §4

[15] = tested on: wild oat; experiment: Test B postemergence herbicide test; format: in vivo, Avena fatua; conditions: 125 g ai/ha, visual rating, scale 0 (no effect) to 100 (complete control)
Method in brief: as §3

[16] = tested on: lambsquarters; experiment: Test B pre-/postemergence herbicide test; format: in vivo, Chenopodium album; conditions: 125 g ai/ha
Method in brief: as §1

[17] = tested on: morningglory; experiment: Test B pre-/postemergence herbicide test; format: in vivo, Ipomoea coccinea; conditions: 125 g ai/ha; for Plant response rating (0 to 100 scale), Morningglory: 0 is no effect, 100 is complete control, preemergence
Method in brief: as §4

[18] = 125 g ai/ha, 100 is complete control
[19] = visual rating, scale 0 (no effect) to 100 (complete control), postemergence
[20] = 125 g ai/ha, visual rating, scale 0 (no effect) to 100 (complete control), postemergence
[21] = postemergence, 500 g ai/ha, scale 0 to 100, 0 is no effect, 100 is complete control

CCNC(=O)c1cccc(NC(=O)c2nn(C(C)(C)C)nc2CC)c1 [Compound 365, 2-(1,1-dimethylethyl)-5-ethyl-N-[3-[(ethylamino)carbonyl]phenyl]-2H-1,2,3-triazole-4-carboxamide]
Plant response rating (0 to 100 scale), Pigweed [1]: 100
pest or weed control at 125 g/ha ([1]; Amaranthus retroflexus, post-emergence, 336 h, visual rating, scale 0 (no effect) to 100 (complete control), read-out: Pigweed plant response rating): 40%
plant injury at 1000 g/ha ([2]; Oryza sativa, 336 h, read-out: Rice plant response rating): 90%
pest or weed control at 1000 g/ha ([3]; Heteranthera limosa, 336 h, read-out: Ducksalad plant response rating): 90%
Plant response rating (0 to 100 scale), Velvetleaf [4]: 50
pest or weed control at 125 g/ha ([4]; Abutilon theophrasti, post-emergence, 336 h, visual rating, scale 0 (no effect) to 100 (complete control), read-out: Velvetleaf plant response rating): 10%
pest or weed control at 125 g/ha ([5]; Alopecurus myosuroides, post-emergence, 336 h, 125 g ai/ha, visual rating, scale 0 (no effect) to 100 (complete control), read-out: Blackgrass plant response rating): 40%
pest or weed control at 500 g/ha ([5]; Alopecurus myosuroides, post-emergence, 336 h, postemergence, 500 g ai/ha, scale 0 to 100, 0 is no effect, 100 is complete control, read-out: Blackgrass plant response rating): 90%
plant injury at 125 g/ha ([6]; Triticum aestivum, post-emergence, 336 h, 125 g ai/ha, visual rating, scale 0 (no effect) to 100 (complete control), read-out: Wheat plant response rating): 20%
pest or weed control at 1000 g/ha ([7]; Cyperus difformis, 336 h, read-out: Sedge, Umbrella plant response rating): 90%
Plant response rating (0 to 100 scale), Corn [8, 18]: 90
plant injury at 125 g/ha ([8]; Zea mays, post-emergence, 125 g ai/ha, visual rating, scale 0 (no effect) to 100 (complete control), read-out: Corn plant response rating): 0%
plant injury at 500 g/ha ([8]; Zea mays, post-emergence, postemergence, 500 g ai/ha, scale 0 to 100, 0 is no effect, 100 is complete control, read-out: Corn plant response rating): 20%
pest or weed control at 1000 g/ha ([9]; Echinochloa crus-galli, 336 h, read-out: Barnyardgrass plant response rating): 90%
Plant response rating (0 to 100 scale), Surinam Grass [10]: 70
pest or weed control at 125 g/ha ([10]; Urochloa decumbens, post-emergence, visual rating, scale 0 (no effect) to 100 (complete control), read-out: Surinam Grass plant response rating): 10%
Plant response rating (0 to 100 scale), Crabgrass, Large [11, 18]: 100
pest or weed control at 125 g/ha ([11]; Digitaria sanguinalis, post-emergence, 125 g ai/ha, visual rating, scale 0 (no effect) to 100 (complete control), read-out: Crabgrass, Large plant response rating): 0%
pest or weed control at 500 g/ha ([11]; Digitaria sanguinalis, post-emergence, postemergence, 500 g ai/ha, scale 0 to 100, 0 is no effect, 100 is complete control, read-out: Crabgrass, Large plant response rating): 80%
Plant response rating (0 to 100 scale), Foxtail, Giant [12, 18]: 100
pest or weed control at 125 g/ha ([12]; Setaria faberi, post-emergence, 336 h, 125 g ai/ha, visual rating, scale 0 (no effect) to 100 (complete control), read-out: Foxtail, Giant plant response rating): 20%
pest or weed control at 500 g/ha ([12]; Setaria faberi, post-emergence, 336 h, postemergence, 500 g ai/ha, scale 0 to 100, 0 is no effect, 100 is complete control, read-out: Foxtail, Giant plant response rating): 70%
Plant response rating (0 to 100 scale), Barnyardgrass [13, 18]: 90
pest or weed control at 125 g/ha ([13]; Echinochloa crus-galli, post-emergence, 125 g ai/ha, visual rating, scale 0 (no effect) to 100 (complete control), read-out: Barnyardgrass plant response rating): 0%
pest or weed control at 500 g/ha ([13]; Echinochloa crus-galli, post-emergence, postemergence, 500 g ai/ha, scale 0 to 100, 0 is no effect, 100 is complete control, read-out: Barnyardgrass plant response rating): 10%
Plant response rating (0 to 100 scale), Cocklebur [14, 18]: 10
pest or weed control at 125 g/ha ([14]; Xanthium strumarium, post-emergence, 125 g ai/ha, visual rating, scale 0 (no effect) to 100 (complete control), read-out: Cocklebur plant response rating): 20%
pest or weed control at 500 g/ha ([14]; Xanthium strumarium, post-emergence, postemergence, 500 g ai/ha, scale 0 to 100, 0 is no effect, 100 is complete control, read-out: Cocklebur plant response rating): 60%
pest or weed control at 125 g/ha ([15]; Avena fatua, post-emergence, 336 h, read-out: Oat, Wild plant response rating): 30%
Plant response rating (0 to 100 scale), Lambsquarters ([16]; 0 is no effect, 100 is complete control, preemergence): 100
pest or weed control at 125 g/ha ([16]; Chenopodium album, post-emergence, 336 h, visual rating, scale 0 (no effect) to 100 (complete control), read-out: Lambsquarters plant response rating): 90%
Plant response rating (0 to 100 scale), Morningglory [17]: 50
pest or weed control at 125 g/ha ([17]; Ipomoea, post-emergence, 336 h, visual rating, scale 0 (no effect) to 100 (complete control), read-out: Morningglory plant response rating): 80%

CCc1nn(C(C)(C)C)nc1C(=O)Nc1cccc(C(=O)N2CC=CC2)c1 [Compound 366]
Plant response rating (0 to 100 scale), Pigweed [1]: 70
Pigweed plant response rating [1, 19]: 50
Rice plant response rating [2]: 70
Ducksalad plant response rating [3]: 100
Plant response rating (0 to 100 scale), Velvetleaf [4]: 0
Velvetleaf plant response rating [4, 19]: 10
Blackgrass plant response rating [5, 20]: 40
Blackgrass plant response rating [5, 21]: 50
Wheat plant response rating [6, 20]: 20
Wheat plant response rating ([6]; 500 g ai/ha, scale 0 to 100, 0 no effect, 100 complete control, preemergence): 90
Sedge, Umbrella plant response rating [7]: 90
Plant response rating (0 to 100 scale), Corn [8, 18]: 40
Corn plant response rating [8, 20]: 10
Corn plant response rating [8, 21]: 20
Barnyardgrass plant response rating [9]: 80
Plant response rating (0 to 100 scale), Surinam Grass [10]: 30
Surinam Grass plant response rating [10, 19]: 10
Plant response rating (0 to 100 scale), Crabgrass, Large [11, 18]: 40
Crabgrass, Large plant response rating [11, 20]: 10
Crabgrass, Large plant response rating [11, 21]: 20
Plant response rating (0 to 100 scale), Foxtail, Giant [12, 18]: 50
Foxtail, Giant plant response rating [12, 20]: 20
Foxtail, Giant plant response rating [12, 21]: 40
Plant response rating (0 to 100 scale), Barnyardgrass [13, 18]: 70
Barnyardgrass plant response rating [13, 20]: 10
Barnyardgrass plant response rating [13, 21]: 10
Plant response rating (0 to 100 scale), Cocklebur [14, 18]: 0
Cocklebur plant response rating [14, 20]: 30
Cocklebur plant response rating [14, 21]: 50
Oat, Wild plant response rating ([15]; postemergence): 40
Lambsquarters plant response rating [16, 19]: 80
Plant response rating (0 to 100 scale), Morningglory [17]: 30
